# From patent US8192962B2, “Processes for detecting toxic substances” (Daikin Industries, Ltd., priority 2001, dated 2012)
# System: Detoxification protein genes
# Assay: DNA chip mRNA expression in yeast, detoxification protein genes (Table 8)
# Format: cell-based, Saccharomyces cerevisiae S288C
# How it was run: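 Expression change after 2 h toxicant exposure (growth-inhibiting, sub-lethal) of log-phase S. cerevisiae S288C at 25° C. Oligo-dT-purified mRNA was labeled with Cy3-dUTP or Cy5-dUTP and hybridized >12 h at 65° C. to a genome-wide chip; ratio of scanned fluorescence to control.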
compound,measurement,setting,value
"O=[N+]([O-])c1cc[n+]([O-])c2ccccc12 [(5), 4-nitroquinolin-N-oxide]",The level of expressed mRNA in the presence of chemical substance/The level of expressed mRNA in the absence of chemical substance,yeast gene YBL064C,0.8
same,The level of expressed mRNA in the presence of chemical substance/The level of expressed mRNA in the absence of chemical substance,yeast gene YBR008C,0.9
same,The level of expressed mRNA in the presence of chemical substance/The level of expressed mRNA in the absence of chemical substance,yeast gene YBR145W,1.1
same,The level of expressed mRNA in the presence of chemical substance/The level of expressed mRNA in the absence of chemical substance,yeast gene YBR244W,1.7
same,The level of expressed mRNA in the presence of chemical substance/The level of expressed mRNA in the absence of chemical substance,yeast gene YBR293W,0.8
same,The level of expressed mRNA in the presence of chemical substance/The level of expressed mRNA in the absence of chemical substance,yeast gene YCL035C,1.5
same,The level of expressed mRNA in the presence of chemical substance/The level of expressed mRNA in the absence of chemical substance,yeast gene YCL069W,0.9
same,The level of expressed mRNA in the presence of chemical substance/The level of expressed mRNA in the absence of chemical substance,yeast gene YCR083W,1.6
same,The level of expressed mRNA in the presence of chemical substance/The level of expressed mRNA in the absence of chemical substance,yeast gene YDL100C,1.0
same,The level of expressed mRNA in the presence of chemical substance/The level of expressed mRNA in the absence of chemical substance,yeast gene YDL168W,1.2
same,The level of expressed mRNA in the presence of chemical substance/The level of expressed mRNA in the absence of chemical substance,yeast gene YDR256C,1.2
same,The level of expressed mRNA in the presence of chemical substance/The level of expressed mRNA in the absence of chemical substance,yeast gene YDR453C,0.7
same,The level of expressed mRNA in the presence of chemical substance/The level of expressed mRNA in the absence of chemical substance,yeast gene YDR513W,0.9
same,The level of expressed mRNA in the presence of chemical substance/The level of expressed mRNA in the absence of chemical substance,yeast gene YDR538W,1.0
same,The level of expressed mRNA in the presence of chemical substance/The level of expressed mRNA in the absence of chemical substance,yeast gene YEL027W,1.0
same,The level of expressed mRNA in the presence of chemical substance/The level of expressed mRNA in the absence of chemical substance,yeast gene YEL065W,1.4
same,The level of expressed mRNA in the presence of chemical substance/The level of expressed mRNA in the absence of chemical substance,yeast gene YER185W,1.6
same,The level of expressed mRNA in the presence of chemical substance/The level of expressed mRNA in the absence of chemical substance,yeast gene YFL050C,1.0
same,The level of expressed mRNA in the presence of chemical substance/The level of expressed mRNA in the absence of chemical substance,yeast gene YGL013C,1.1
same,The level of expressed mRNA in the presence of chemical substance/The level of expressed mRNA in the absence of chemical substance,yeast gene YGL254W,1.1
same,The level of expressed mRNA in the presence of chemical substance/The level of expressed mRNA in the absence of chemical substance,yeast gene YGR088W,1.0
same,The level of expressed mRNA in the presence of chemical substance/The level of expressed mRNA in the absence of chemical substance,yeast gene YGR138C,0.8
same,The level of expressed mRNA in the presence of chemical substance/The level of expressed mRNA in the absence of chemical substance,yeast gene YGR197C,0.7
same,The level of expressed mRNA in the presence of chemical substance/The level of expressed mRNA in the absence of chemical substance,yeast gene YGR209C,1.9
same,The level of expressed mRNA in the presence of chemical substance/The level of expressed mRNA in the absence of chemical substance,yeast gene YGR224W,1.4
same,The level of expressed mRNA in the presence of chemical substance/The level of expressed mRNA in the absence of chemical substance,yeast gene YHL040C,1.1
same,The level of expressed mRNA in the presence of chemical substance/The level of expressed mRNA in the absence of chemical substance,yeast gene YHL047C,1.2
same,The level of expressed mRNA in the presence of chemical substance/The level of expressed mRNA in the absence of chemical substance,yeast gene YHR008C,0.6
same,The level of expressed mRNA in the presence of chemical substance/The level of expressed mRNA in the absence of chemical substance,yeast gene YHR048W,1.0
same,The level of expressed mRNA in the presence of chemical substance/The level of expressed mRNA in the absence of chemical substance,yeast gene YHR053C,2.9
same,The level of expressed mRNA in the presence of chemical substance/The level of expressed mRNA in the absence of chemical substance,yeast gene YHR055C,2.7
same,The level of expressed mRNA in the presence of chemical substance/The level of expressed mRNA in the absence of chemical substance,yeast gene YIR002C,1.2
same,The level of expressed mRNA in the presence of chemical substance/The level of expressed mRNA in the absence of chemical substance,yeast gene YIR038C,0.7
same,The level of expressed mRNA in the presence of chemical substance/The level of expressed mRNA in the absence of chemical substance,yeast gene YJL101C,1.4
same,The level of expressed mRNA in the presence of chemical substance/The level of expressed mRNA in the absence of chemical substance,yeast gene YJR104C,1.5
same,The level of expressed mRNA in the presence of chemical substance/The level of expressed mRNA in the absence of chemical substance,yeast gene YKL026C,1.0
same,The level of expressed mRNA in the presence of chemical substance/The level of expressed mRNA in the absence of chemical substance,yeast gene YKL064W,1.2
same,The level of expressed mRNA in the presence of chemical substance/The level of expressed mRNA in the absence of chemical substance,yeast gene YKR066C,1.0
same,The level of expressed mRNA in the presence of chemical substance/The level of expressed mRNA in the absence of chemical substance,yeast gene YKR105C,1.0
same,The level of expressed mRNA in the presence of chemical substance/The level of expressed mRNA in the absence of chemical substance,yeast gene YKR106W,1.2
same,The level of expressed mRNA in the presence of chemical substance/The level of expressed mRNA in the absence of chemical substance,yeast gene YLL028W,0.9
same,The level of expressed mRNA in the presence of chemical substance/The level of expressed mRNA in the absence of chemical substance,yeast gene YLL057C,1.1
same,The level of expressed mRNA in the presence of chemical substance/The level of expressed mRNA in the absence of chemical substance,yeast gene YLL060C,0.9
same,The level of expressed mRNA in the presence of chemical substance/The level of expressed mRNA in the absence of chemical substance,yeast gene YLR043C,2.0
same,The level of expressed mRNA in the presence of chemical substance/The level of expressed mRNA in the absence of chemical substance,yeast gene YLR046C,1.0
same,The level of expressed mRNA in the presence of chemical substance/The level of expressed mRNA in the absence of chemical substance,yeast gene YML028W,1.6
same,The level of expressed mRNA in the presence of chemical substance/The level of expressed mRNA in the absence of chemical substance,yeast gene YML116W,1.2
same,The level of expressed mRNA in the presence of chemical substance/The level of expressed mRNA in the absence of chemical substance,yeast gene YMR015C,1.7
same,The level of expressed mRNA in the presence of chemical substance/The level of expressed mRNA in the absence of chemical substance,yeast gene YMR038C,1.5
same,The level of expressed mRNA in the presence of chemical substance/The level of expressed mRNA in the absence of chemical substance,yeast gene YNL239W,1.2
same,The level of expressed mRNA in the presence of chemical substance/The level of expressed mRNA in the absence of chemical substance,yeast gene YNL241C,0.8
same,The level of expressed mRNA in the presence of chemical substance/The level of expressed mRNA in the absence of chemical substance,yeast gene YNL259C,1.1
same,The level of expressed mRNA in the presence of chemical substance/The level of expressed mRNA in the absence of chemical substance,yeast gene YOL158C,1.2
same,The level of expressed mRNA in the presence of chemical substance/The level of expressed mRNA in the absence of chemical substance,yeast gene YOR031W,1.4
same,The level of expressed mRNA in the presence of chemical substance/The level of expressed mRNA in the absence of chemical substance,yeast gene YOR153W,1.0
same,The level of expressed mRNA in the presence of chemical substance/The level of expressed mRNA in the absence of chemical substance,yeast gene YOR247W,0.6
same,The level of expressed mRNA in the presence of chemical substance/The level of expressed mRNA in the absence of chemical substance,yeast gene YOR251C,0.8
same,The level of expressed mRNA in the presence of chemical substance/The level of expressed mRNA in the absence of chemical substance,yeast gene YOR273C,1.1
same,The level of expressed mRNA in the presence of chemical substance/The level of expressed mRNA in the absence of chemical substance,yeast gene YPL163C,0.6
same,The level of expressed mRNA in the presence of chemical substance/The level of expressed mRNA in the absence of chemical substance,yeast gene YPR200C,1.6
